Test results as given in patent publication US20230123334A1, “AMINO LIPID COMPOUND, PREPARATION METHOD THEREFOR, AND APPLICATION THEREOF” (SHENZHEN SHENXIN BIOTECHNOLOGY CO., LTD., priority 2020, published 2023).

System: HEK293 cells
Test: Preliminary screening as DNA vectors, GFP transfection of HEK293 cells
Assay type: cell-based
Settings: amino lipid/DOPE liposome with 75 ng plasmid DNA (psin-EGFP-IRES-Puro); number of GFP-expressing cells divided by total nuclei (Hoechst)
Method in brief: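 First, amino lipid and DOPE were vortexed in sodium acetate buffer (pH 5.6) to form liposomes. Next, these were held with 75 ng EGFP plasmid at room temperature for 30 min. Finally, HEK293 cells were added, cultured at 37° C., Hoechst-stained, and GFP+/total nuclei scored by imaging.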

## CCCCCCCCCCCCSc1nc(NCCCCCCCC)nc(NCCCN2CCN(C)CC2)n1 [S12N8 D9]
  Absolute DNA transfection efficiency in HEK293 cells: 8.9%

## CCCCCCCCCCCCCNc1nc(NCCCN2CCN(C)CC2)nc(SCCCCCC)n1 [S6N13 D9]
  Absolute DNA transfection efficiency in HEK293 cells: 38.3%

## CCCCCCCCCCCCCCCCNc1nc(NCCN2CCOCC2)nc(SCCCCCCCCC)n1 [S9N16 D2]
  Absolute DNA transfection efficiency in HEK293 cells: 23.5%

## CCCCCCCCCCCCCCSc1nc(NCCN(C)C)nc(SCCCCCC)n1 [S6S14 D1]
  Absolute DNA transfection efficiency in HEK293 cells: 8.3%

## CCCCCCCCCCCCCCCCSc1nc(NCCCCCCCCCCCCC)nc(NCCN(C)C)n1 [S16N13 D1]
  Absolute DNA transfection efficiency in HEK293 cells: 1.2%

## CCCCCCCSc1nc(NCCN2CCCC2)nc(SCCCCCC)n1 [S6S7 D3]
  Absolute DNA transfection efficiency in HEK293 cells: 1.4%

## CCCCCCCCCCCNc1nc(NCCN2CCN(C)CC2)nc(SCCCCCCCCC)n1 [S9N11 D5]
  Absolute DNA transfection efficiency in HEK293 cells: 45.0%

## CCCCCCCCCCCSc1nc(NCCCCCCCC)nc(NCCN(CC)CC)n1 [S11N8 D7]
  Absolute DNA transfection efficiency in HEK293 cells: 10.1%

## CCCCCCCCCCCCCCSc1nc(NCCCCCCC)nc(NCCCN2CCOCC2)n1 [S14N7 D8]
  Absolute DNA transfection efficiency in HEK293 cells: 13.3%

## CCCCCCCCCCCCN(CCCCCCCCCCCC)c1nc(NCCCN2CCOCC2)nc(SCCCCCC)n1 [S6^2N12 D8]
  Absolute DNA transfection efficiency in HEK293 cells: 0.0%

## CCCCCCCCCCCCSc1nc(NCCCCCCCCC)nc(NCCN(CC)CC)n1 [S12N9 D7]
  Absolute DNA transfection efficiency in HEK293 cells: 0.8%

## CCCCCCCCCCCCCCCCSc1nc(NCC2CCN(C)CC2)nc(SCCCCCCC)n1 [S7S16 D10]
  Absolute DNA transfection efficiency in HEK293 cells: 22.2%

## CCCCCCNc1nc(NCCN2CCOCC2)nc(SCCCCCC)n1 [S6N6 D2]
  Absolute DNA transfection efficiency in HEK293 cells: 0.0%

## CCCCCCCCCCCCCCCNc1nc(NCCN2CCCC2)nc(SCCCCCCCCCCC)n1 [S11N15 D3]
  Absolute DNA transfection efficiency in HEK293 cells: 24.5%

## CCCCCCCCCNc1nc(NCCN2CCCC2)nc(SCCCCCCCCC)n1 [S9N9 D3]
  Absolute DNA transfection efficiency in HEK293 cells: 54.9%

## CCCCCCCCCCCCN(CCCCCCCCCCCC)c1nc(NCCN2CCOCC2)nc(SCCCCCCCCC)n1 [S9^2N12 D2]
  Absolute DNA transfection efficiency in HEK293 cells: 0.0%

## CCCCCCCCCCSc1nc(NCCCCCCCC)nc(NCCN2CCCC2)n1 [S10N8 D3]
  Absolute DNA transfection efficiency in HEK293 cells: 3.9%

## CCCCCCCCCCCCCCCCSc1nc(NCCCCCCCC)nc(NCCCN(C)C)n1 [S16N8 D6]
  Absolute DNA transfection efficiency in HEK293 cells: 11.1%

## CCCCCCCCCCCCCCCCSc1nc(NCCCCCCCC)nc(NCCN(C)C)n1 [S16N8 D1]
  Absolute DNA transfection efficiency in HEK293 cells: 10.0%

## CCCCCCCCCCCCCCCSc1nc(NCCCCCC)nc(NCCCN2CCN(C)CC2)n1 [S15N6 D9]
  Absolute DNA transfection efficiency in HEK293 cells: 15.4%

## CCCCCCCCCCCCCCCCSc1nc(NCCCCCCC)nc(NCCN(C)C)n1 [S16N7 D1]
  Absolute DNA transfection efficiency in HEK293 cells: 13.0%

## CCCCCCCCCCCNc1nc(NCCN(CC)CC)nc(SCCCCCCCCC)n1 [S9N11 D7]
  Absolute DNA transfection efficiency in HEK293 cells: 15.7%

## CCCCCCCCCNc1nc(NCCCN2CCOCC2)nc(SCCCCCC)n1 [S6N9 D8]
  Absolute DNA transfection efficiency in HEK293 cells: 0.0%

## CCCCCCCCCCCCCCCCCCSc1nc(NCCCCCC)nc(NCC2CCN(C)CC2)n1 [S18N6 D10]
  Absolute DNA transfection efficiency in HEK293 cells: 8.9%

## CCCCCCCCCSc1nc(NCCCCCCC)nc(NCCN(CC)CC)n1 [S9N7 D7]
  Absolute DNA transfection efficiency in HEK293 cells: 15.2%

## CCCCCCCCCCCCCCCCSc1nc(NCCCCCC)nc(NCCN2CCN(C)CC2)n1 [S16N6 D5]
  Absolute DNA transfection efficiency in HEK293 cells: 18.7%

## CCCCCCCCCCCCCCCNc1nc(NCCN(CC)CC)nc(SCCCCCCC)n1 [S7N15 D7]
  Absolute DNA transfection efficiency in HEK293 cells: 7.2%

## CCCCCCCCCCCCN(CCCCCCCCCCCC)c1nc(NCCN2CCCCC2)nc(SCCCCCC)n1 [S6^2N12 D4]
  Absolute DNA transfection efficiency in HEK293 cells: 0.1%

## CCCCCCCCCCCCCNc1nc(NCCCN(C)C)nc(SCCCCCCC)n1 [S7N13 D6]
  Absolute DNA transfection efficiency in HEK293 cells: 43.2%

## CCCCCCCSc1nc(NCCN2CCCCC2)nc(SCCCCCC)n1 [S6S7 D4]
  Absolute DNA transfection efficiency in HEK293 cells: 2.0%

## CCCCCCCNc1nc(NCCN(C)C)nc(SCCCCCC)n1 [S6N7 D1]
  Absolute DNA transfection efficiency in HEK293 cells: 0.1%

## CCCCCCCCCCCCN(CCCCCCCCCCCC)c1nc(NCC2CCN(C)CC2)nc(SCCCCCCCCCCC)n1 [S11^2N12 D10]
  Absolute DNA transfection efficiency in HEK293 cells: 0.0%

## CCCCCCCCCCCCCCCCSc1nc(NCCCCCCCCCCCC)nc(NCCN2CCOCC2)n1 [S16N12 D2]
  Absolute DNA transfection efficiency in HEK293 cells: 0.0%

## CCCCCCCCCCCCSc1nc(NCCCCCC)nc(NCCN2CCN(C)CC2)n1 [S12N6 D5]
  Absolute DNA transfection efficiency in HEK293 cells: 0.2%

## CCCCCCCCCCCSc1nc(NCC2CCN(C)CC2)nc(SCCCCCC)n1 [S6S11 D10]
  Absolute DNA transfection efficiency in HEK293 cells: 38.1%

## CCCCCCCCCCCCCCCCCCNc1nc(NCCN2CCOCC2)nc(SCCCCCCCCCCCCCCCC)n1 [S16N18 D2]
  Absolute DNA transfection efficiency in HEK293 cells: 0.0%

## CCCCCCCCCCCCCCSc1nc(NCCCCCCCCCCCC)nc(NCCN2CCCC2)n1 [S14N12 D3]
  Absolute DNA transfection efficiency in HEK293 cells: 21.0%

## CCCCCCCCCCSc1nc(NCCCN(C)C)nc(SCCCCCCC)n1 [S7S10 D6]
  Absolute DNA transfection efficiency in HEK293 cells: 4.7%

## CCCCCCCCCCCCCCCCCCNc1nc(NCC2CCN(C)CC2)nc(SCCCCCCCCCCC)n1 [S11N18 D10]
  Absolute DNA transfection efficiency in HEK293 cells: 5.7%

## CCCCCCCCCCCNc1nc(NCCN2CCCCC2)nc(SCCCCCCC)n1 [S7N11 D4]
  Absolute DNA transfection efficiency in HEK293 cells: 6.9%

## CCCCCCCCCCCCCCCCNc1nc(NCCCN2CCN(C)CC2)nc(SCCCCCCCCCCCCCC)n1 [S14N16 D9]
  Absolute DNA transfection efficiency in HEK293 cells: 0.9%

## CCCCCCCCCCCSc1nc(NCCN(CC)CC)nc(SCCCCCCCC)n1 [S8S11 D7]
  Absolute DNA transfection efficiency in HEK293 cells: 10.3%

## CCCCCCCCCCCCCCCCCCSc1nc(NCCCCCCCCCCC)nc(NCCN2CCN(C)CC2)n1 [S18N11 D5]
  Absolute DNA transfection efficiency in HEK293 cells: 6.3%

## CCCCCCCCSc1nc(NCCN(C)C)nc(SCCCCCCC)n1 [S7S8 D1]
  Absolute DNA transfection efficiency in HEK293 cells: 6.7%

## CCCCCCCCCCCCCCSc1nc(NCCCCCC)nc(NCCCN(C)C)n1 [S14N6 D6]
  Absolute DNA transfection efficiency in HEK293 cells: 30.1%

## CCCCCCCCCCCCN(CCCCCCCCCCCC)c1nc(NCCN2CCCCC2)nc(SCCCCCCCC)n1 [S8^2N12 D4]
  Absolute DNA transfection efficiency in HEK293 cells: 0.0%

## CCCCCCCCCCCCCCCCNc1nc(NCCN2CCCC2)nc(SCCCCCCCCCCCC)n1 [S12N16 D3]
  Absolute DNA transfection efficiency in HEK293 cells: 2.6%

## CCCCCCCCCCCCCCCCNc1nc(NCCN2CCCCC2)nc(SCCCCCCCCCCCCCCCC)n1 [S16N16 D4]
  Absolute DNA transfection efficiency in HEK293 cells: 3.4%

## CCCCCCCCCCCCCCCNc1nc(NCC2CCN(C)CC2)nc(SCCCCCCCCCCCCCC)n1 [S14N15 D10]
  Absolute DNA transfection efficiency in HEK293 cells: 0.7%

## CCCCCCCCCCCSc1nc(NCCN(C)C)nc(SCCCCCC)n1 [S6S11 D1]
  Absolute DNA transfection efficiency in HEK293 cells: 6.0%

## CCCCCCCCCCSc1nc(NCCCCCCC)nc(NCCN2CCCC2)n1 [S10N7 D3]
  Absolute DNA transfection efficiency in HEK293 cells: 7.4%

## CCCCCCCCCCCCCCCCSc1nc(NCCCCCCCCCCCCC)nc(NCCN2CCN(C)CC2)n1 [S16N13 D5]
  Absolute DNA transfection efficiency in HEK293 cells: 0.8%

## CCCCCCCCCCCCCCCCCCSc1nc(NCCCCCCCCCCCC)nc(NCCN2CCN(C)CC2)n1 [S18N12 D5]
  Absolute DNA transfection efficiency in HEK293 cells: 1.0%

## CCCCCCCCCCCCSc1nc(NCC2CCN(C)CC2)nc(SCCCCCCC)n1 [S7S12 D10]
  Absolute DNA transfection efficiency in HEK293 cells: 21.3%

## CCCCCCCCCCCCCCCSc1nc(NCCN2CCCC2)nc(SCCCCCC)n1 [S6S15 D3]
  Absolute DNA transfection efficiency in HEK293 cells: 14.5%

## CCCCCCCCCCCCCCCCNc1nc(NCCN(C)C)nc(SCCCCCCCC)n1 [S8N16 D1]
  Absolute DNA transfection efficiency in HEK293 cells: 7.1%

## CCCCCCCCCNc1nc(NCCCN(C)C)nc(SCCCCCCCC)n1 [S8N9 D6]
  Absolute DNA transfection efficiency in HEK293 cells: 33.3%

## CCCCCCCCCCCCCCCCCCSc1nc(NCCN(C)C)nc(N(CCCCCCCCCCCC)CCCCCCCCCCCC)n1 [S18^2N12 D1]
  Absolute DNA transfection efficiency in HEK293 cells: 0.0%

## CCCCCCCCCCCSc1nc(NCCN2CCCCC2)nc(SCCCCCCCC)n1 [S8S11 D4]
  Absolute DNA transfection efficiency in HEK293 cells: 8.5%

## CCCCCCCCCCCCSc1nc(NCCN2CCCC2)nc(N(CCCCCCCCCCCC)CCCCCCCCCCCC)n1 [S12^2N12 D3]
  Absolute DNA transfection efficiency in HEK293 cells: 0.0%

## CCCCCCCCCCCCCCCCCCSc1nc(NCCN(CC)CC)nc(SCCCCCCC)n1 [S7S18 D7]
  Absolute DNA transfection efficiency in HEK293 cells: 7.3%

## CCCCCCCCCNc1nc(NCC2CCN(C)CC2)nc(SCCCCCC)n1 [S6N9 D10]
  Absolute DNA transfection efficiency in HEK293 cells: 4.3%

## CCCCCCCCCCCCCNc1nc(NCCCN2CCOCC2)nc(SCCCCCCCC)n1 [S8N13 D8]
  Absolute DNA transfection efficiency in HEK293 cells: 13.3%

## CCCCCCCCCCCCCCCSc1nc(NCCN2CCCCC2)nc(SCCCCCCC)n1 [S7S15 D4]
  Absolute DNA transfection efficiency in HEK293 cells: 11.6%

## CCCCCCCCCCCCCCCCCCNc1nc(NCCN(C)C)nc(SCCCCCCCCCCC)n1 [S11N18 D1]
  Absolute DNA transfection efficiency in HEK293 cells: 13.8%

## CCCCCCCCCCCCCCCCNc1nc(NCCN2CCN(C)CC2)nc(SCCCCCCCCC)n1 [S9N16 D5]
  Absolute DNA transfection efficiency in HEK293 cells: 21.7%

## CCCCCCCCCCCCCCCCCCSc1nc(NCCCCCCCCCCCC)nc(NCCN2CCCCC2)n1 [S18N12 D4]
  Absolute DNA transfection efficiency in HEK293 cells: 0.3%

## CCCCCCCCCCCCCCCCNc1nc(NCCCN2CCOCC2)nc(SCCCCCCCCC)n1 [S9N16 D8]
  Absolute DNA transfection efficiency in HEK293 cells: 18.4%

## CCCCCCCCCCCNc1nc(NCCN(C)C)nc(SCCCCCCCCCCC)n1 [S11N11 D1]
  Absolute DNA transfection efficiency in HEK293 cells: 17.8%

## CCCCCCCCCCCCSc1nc(NCCN2CCCC2)nc(SCCCCCCC)n1 [S7S12 D3]
  Absolute DNA transfection efficiency in HEK293 cells: 9.9%

## CCCCCCCSc1nc(NCCCN(C)C)nc(SCCCCCC)n1 [S6S7 D6]
  Absolute DNA transfection efficiency in HEK293 cells: 6.9%

## CCCCCCCCCCCCCCCSc1nc(NCCCCCCCC)nc(NCCN2CCCC2)n1 [S15N8 D3]
  Absolute DNA transfection efficiency in HEK293 cells: 12.7%
